Assay [1] deals with HPAC (homozygous mutant KRAS G12D human pancreatic cell line). The assay is described as follows: KRAS 3D-Cell Proliferation Assay, HPAC (Example 503). The assay is classed as cell-based. Particulars: Homo sapiens, HPAC, 168 h, HPAC 3D culture, 7 days, CellTiter-Glo 3D; read-out: Prolif HPAC 3D ATP IC50. The method, boiled down: (§1)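 Luminescent ATP readout (CellTiter-Glo 3D, with mechanical mixing) measures growth of cells cultured in 3D after a 7-day compound exposure at 37° C. Percent inhibition is referenced to vehicle (DMSO) and 1 μM staurosporine controls, and IC50 comes from a four-parameter Hill fit.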
A general note: ATP-based viability assays read luminescence as a measure of living cells.

Assay [2] deals with H1975 (KRAS wild type human lung adenocarcinoma cell line). The assay is described as follows: KRAS 3D-Cell Proliferation Assay, H1975 (Example 503). It counts as cell-based. The following applies: Homo sapiens, NCI-H1975, 168 h, H1975 3D culture, 7 days, CellTiter-Glo 3D; read-out: Prolif H1975 3D ATP IC50. The method, boiled down:
as §1

Each structure is given as a SMILES string.

Broadly, the IC50 is the concentration that inhibits the measured activity by half. As for `Cc1nc(N)cc(-c2nc3c4c(nc(OCC5(CN6CC7CC(C6)O7)CC5)nc4c2F)N2C[C@H]4CC[C@H](N4)[C@H]2[C@H](C)O3)c1C(F)(F)F` [Compound 265, 4-((5S,5aS,6S,9R)-12-((1-((6-oxa-3-azabicyclo[3.1.1]heptan-3-yl)methyl)cyclopropyl)methoxy)-1-fluoro-5-methyl-5a,6,7,8,9,10-hexahydro-5H-4-oxa-3,10a,11,13,14-pentaaza-6,9-methanonaphtho[1,8-ab]heptalene-2-yl)-6-methyl-5-(trifluoromethyl)pyridin-2-amine], the IC50 came to 0.00224 µM in assay [1] and 6.24 µM in assay [2].
Regarding `Cc1nc(N)cc(-c2nc3c4c(nc(OCC5(CN6CC[C@H]7OCC[C@H]76)CC5)nc4c2F)N2C[C@H]4CC[C@H](N4)[C@H]2[C@H](C)O3)c1C(F)(F)F` [Compound 268, 4-((5S,5aS,6S,9R)-1-fluoro-12-((1-(((3aR,6aR)-hexahydro-4H-furo[3,2-b]pyrrol-4-yl)methyl)cyclopropyl)methoxy)-5-methyl-5a,6,7,8,9,10-hexahydro-5H-4-oxa-3,10a,11,13,14-pentaaza-6,9-methanonaphtho[1,8-ab]heptalene-2-yl)-6-methyl-5-(trifluoromethyl)pyridin-2-amine], the figures for the half-inhibitory concentration (IC50) in assay [1] and in assay [2] were 0.00217 µM and 1.7 µM, respectively.
On the same counts, the results for `COCC1(F)CCN(CC2(COc3nc4c5c(nc(-c6cc(N)nc(C)c6C(F)(F)F)c(F)c5n3)O[C@@H](C)[C@@H]3[C@@H]5CC[C@H](CN43)N5)CC2)C1` (stereo partly drawn) [Compound 270, 4-((5S,5aS,6S,9R)-1-fluoro-12-((1-((3-fluoro-3-(methoxymethyl)pyrrolidin-1-yl)methyl)cyclopropyl)methoxy)-5-methyl-5a,6,7,8,9,10-hexahydro-5H-4-oxa-3,10a,11,13,14-pentaaza-6,9-methanonaphtho[1,8-ab]heptalen-2-yl)-6-methyl-5-(trifluoromethyl)pyridin-2-amine] are 0.00252 µM and 2.48 µM.
In the same order, the values of `COC1(C(F)F)CN(CC2(COc3nc4c5c(nc(-c6cc(N)nc(C)c6C(F)(F)F)c(F)c5n3)O[C@@H](C)[C@@H]3[C@@H]5CC[C@H](CN43)N5)CC2)C1` [Compound 271, 4-((5S,5aS,6S,9R)-12-((1-((3-(difluoromethyl)-3-methoxyazetidin-1-yl)methyl)cyclopropyl)methoxy)-1-fluoro-5-methyl-5a,6,7,8,9,10-hexahydro-5H-4-oxa-3,10a,11,13,14-pentaaza-6,9-methanonaphtho[1,8-ab]heptalene-2-yl)-6-methyl-5-(trifluoromethyl)pyridin-2-amine] are 0.00449 µM and 10.9 µM.
In the same order, the values of `COC1(CF)CN(CC2(COc3nc4c5c(nc(-c6cc(N)nc(C)c6C(F)(F)F)c(F)c5n3)O[C@@H](C)[C@@H]3[C@@H]5CC[C@H](CN43)N5)CC2)C1` [Compound 272] are 0.00458 µM and 5.48 µM.
On to `COC1(C)CN(CC2(COc3nc4c5c(nc(-c6cc(N)nc(C)c6C(F)(F)F)c(F)c5n3)O[C@@H](C)[C@@H]3[C@@H]5CC[C@H](CN43)N5)CC2)C1` [Compound 273, 4-((5S,5aS,6S,9R)-1-fluoro-12-((1-((3-methoxy-3-methylazetidin-1-yl)methyl)cyclopropyl)methoxy)-5-methyl-5a,6,7,8,9,10-hexahydro-5H-4-oxa-3,10a,11,13,14-pentaaza-6,9-methanonaphtho[1,8-ab]heptalene-2-yl)-6-methyl-5-(trifluoromethyl)pyridin-2-amine], for which the IC50 in assay [1] was 0.00653 µM; in assay [2] it was 3.19 µM.
Regarding `Cc1nc(N)cc(-c2nc3c4c(nc(OCC5(CN6CC(C(F)F)C6)CC5)nc4c2F)N2C[C@H]4CC[C@H](N4)[C@H]2[C@H](C)O3)c1C(F)(F)F` [Compound 274, 4-((5S,5aS,6S,9R)-12-((1-((3-(difluoromethyl)90eptalene-1-yl)methyl)cyclopropyl)methoxy)-1-fluoro-5-methyl-5a,6,7,8,9,10-hexahydro-5H-4-oxa-3,10a,11,13,14-pentaaza-6,9-methanonaphtho[1,8-ab]heptalene-2-yl)-6-methyl-5-(trifluoromethyl)pyridin-2-amine], the half-maximal inhibitory concentration (IC50) in assay [1] was found to be 0.00755 µM; in assay [2], 1.07 µM.

Source of the values: patent US12338256B2, “Aza-tetracyclic oxazepine compounds and uses thereof” (Genentech, Inc., priority 2022, dated 2025).
